Reference: patent publication US20090203737A1, “Pyrrole Derivatives as Positive Allosteric Modulators of Metabotropic Receptors” (priority 2005, published 2009)

Assays:
rat mGluR5 receptor = target: T1, rat mGluR5 receptor (Rattus norvegicus, UniProt P31424); experiment: mGluR5 assay on HEK-expressing rat mGluR5 (fluorescent cell based Ca2+ mobilization assay); details: for activation of rat mGluR5 receptors: HEK-rat mGluR5 cell line, without co-addition of glutamate or mGluR5 agonist; for EC50: HEK-293 cells stably expressing rat mGluR5, no co-addition of glutamate, mean of at least three independent experiments in duplicate, read-out: Ca++ Flux (mean EC50)
T1 construct: expressed in transfected cells
Procedure: Positive functional expression of HEK-293 cells stably expressing rat mGluR5 receptor was determined by measuring intracellular Ca^2+ changes using a Fluorometric Imaging Plate Reader (FLIPR, Molecular Devices, Sunnyvale, Calif.) in response to glutamate or selective known mGluR5 agonists and antagonists. Rat mGluR5 RT-PCR products in HEK-293 cells were sequenced and found 100% identical to rat mGluR5 Genbank reference sequence (NM_017012). HEK-293 cells expressing rmGluR5 were maintained in media containing DMEM, dialyzed Fetal Bovine Serum (10%), Glutamax™ (2 mM), Penicillin (100 units/ml), Streptomycin (100 μg/ml), Geneticin (100 μg/ml) and Hygromycin-B (40 μg/ml) at 37° C./5% CO2.
After one day of incubation, cells were washed with assay buffer containing: 142 mM NaCl, 6 mM KCl, 1 mM […], 1 mM CaCl2, 20 mM HEPES, 1 g/L glucose, 0.125 mM sulfinpyrazone, pH 7.4. After 60 min of loading with 4 uM Fluo-4 (TefLabs, Austin, Tex.), the cells were washed three times with 50 μl of PBS Buffer and resuspended in 45 μl of assay Buffer. The plates were then transferred to a Fluorometric Imaging Plate Reader (FLIPR, Molecular Devices, Sunnyvale, Calif.) for the assessment of intracellular calcium flux. After monitoring the baseline fluorescence for 10 seconds, increasing concentrations of representative compound (from 0.01 to 60 μM) of the present invention diluted in Assay Buffer (15 μl of 4× dilutions) was added to the cell. The final DMSO concentration in the assay was 0.3%. In each experiment, fluorescence was then monitored as a function of time for 3 minutes and the data analyzed using Microsoft Excel and GraphPad Prism. Each data point was also measured two times.
Under these experimental conditions, this HEK-rat mGluR5 cell line is able to directly detect positive allosteric modulators without the need of co-addition of glutamate or mGluR5 agonist.
The concentration-response curves of representative compounds of the present invention were generated using the Prism GraphPad software (Graph Pad Inc, San Diego, USA). The curves were fitted to a four-parameter logistic equation:
(Y=Bottom+(Top−Bottom)/(1+10̂((LogEC50−X)*Hill Slope)
allowing determination of EC50 values.
The Table 1 below represents the mean EC50 obtained from at least three independent experiments of selected molecules performed in duplicate.

mGluR5 [1] = target: T2, mGluR5 (Rattus norvegicus, UniProt P31424); details: Liu et al (2006), Zhang et al (2005); cited from earlier work
T2 construct: positive allosteric modulators of mGluR5 receptors in native preparations; endogenous in cells; host or cells: primary cortical astrocytes from Sprague-Dawley rat embryos (E16-19)

mGluR5 [2] = target: T2, mGluR5; experiment: mGluR5 binding assay ([3H]-MPEP, rat brain membranes); details: 3 nM [3H]-MPEP, 1 h at 4° C.
Description: Activity of compounds of the invention was examined following a radioligand binding technique using whole rat brain and tritiated 2-methyl-6-(phenylethynyl)-pyridine ([^3H]-MPEP) as a ligand following similar methods than those described in Gasparini et al. (2002) Bioorg. Med. Chem. Lett. 12:407-409 and in Anderson et al. (2002) J. Pharmacol. Exp. Ther. 303 (3) 1044-1051.
Cortices were dissected out from brains of 200-300g Sprague-Dawley rats (Charles River Laboratories, L'Arbresle, France). Tissues were homogenized in 10 volumes (vol/wt) of ice-cold 50 mM HEPES-NaOH (pH 7.4) using a Polytron disrupter (Kinematica AG, Luzern, Switzerland) and centrifuged for 30 min at 40,000 g. (4° C.). […] Protein concentration was determined by the Bradford method (Bio-Rad protein assay, Reinach, Switzerland) with bovine serum albumin as standard.
Membranes were thawed and resuspended in binding buffer containing 20 mM HEPES-NaOH, 3 mM MgCl2, 3 mM CaCl2, 100 mM NaCl, pH 7.4. […] Radioactivity was determined by liquid scintillation spectrometry using a 96-well plate reader (TopCount, Perkin-Elmer, Downers Grove, USA).
The inhibition curves were generated using the Prism GraphPad program (Graph Pad Software Inc, San Diego, USA). […] The mean of IC50 obtained from at least three independent experiments of selected molecules performed in duplicate were calculated.

T1 sequence (P31424 21-1171 isoform P31424-2 limits assumed): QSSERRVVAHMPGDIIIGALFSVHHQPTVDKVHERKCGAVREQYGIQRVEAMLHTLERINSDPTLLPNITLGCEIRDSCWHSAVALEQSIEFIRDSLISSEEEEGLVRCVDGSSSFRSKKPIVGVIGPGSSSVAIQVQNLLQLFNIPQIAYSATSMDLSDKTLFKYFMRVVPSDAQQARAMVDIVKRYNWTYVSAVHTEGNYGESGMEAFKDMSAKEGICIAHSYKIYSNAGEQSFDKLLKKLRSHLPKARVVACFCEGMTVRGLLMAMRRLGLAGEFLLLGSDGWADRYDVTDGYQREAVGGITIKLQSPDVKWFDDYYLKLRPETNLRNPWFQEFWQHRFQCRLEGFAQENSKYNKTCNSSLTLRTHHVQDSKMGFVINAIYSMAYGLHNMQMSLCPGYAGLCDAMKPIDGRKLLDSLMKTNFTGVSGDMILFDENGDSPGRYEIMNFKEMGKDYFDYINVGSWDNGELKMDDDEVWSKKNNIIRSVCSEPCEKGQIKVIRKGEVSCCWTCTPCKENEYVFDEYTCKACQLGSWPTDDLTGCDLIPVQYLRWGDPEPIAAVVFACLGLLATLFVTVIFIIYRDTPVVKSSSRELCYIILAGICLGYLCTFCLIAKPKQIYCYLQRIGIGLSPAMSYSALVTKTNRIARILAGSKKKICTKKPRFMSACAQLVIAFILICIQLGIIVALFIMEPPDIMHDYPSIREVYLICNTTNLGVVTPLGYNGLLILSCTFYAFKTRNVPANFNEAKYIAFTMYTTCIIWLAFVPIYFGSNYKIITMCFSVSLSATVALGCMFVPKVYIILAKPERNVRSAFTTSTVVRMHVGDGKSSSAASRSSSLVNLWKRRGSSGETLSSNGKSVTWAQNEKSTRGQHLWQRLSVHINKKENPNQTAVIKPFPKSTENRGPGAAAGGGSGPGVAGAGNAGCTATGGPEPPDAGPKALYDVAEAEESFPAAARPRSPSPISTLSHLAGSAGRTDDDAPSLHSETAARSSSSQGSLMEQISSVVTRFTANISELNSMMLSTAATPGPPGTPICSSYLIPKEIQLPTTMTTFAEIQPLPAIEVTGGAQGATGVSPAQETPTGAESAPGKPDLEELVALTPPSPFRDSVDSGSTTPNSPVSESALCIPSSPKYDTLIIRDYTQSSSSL
T2 sequence (P31424 21-1203): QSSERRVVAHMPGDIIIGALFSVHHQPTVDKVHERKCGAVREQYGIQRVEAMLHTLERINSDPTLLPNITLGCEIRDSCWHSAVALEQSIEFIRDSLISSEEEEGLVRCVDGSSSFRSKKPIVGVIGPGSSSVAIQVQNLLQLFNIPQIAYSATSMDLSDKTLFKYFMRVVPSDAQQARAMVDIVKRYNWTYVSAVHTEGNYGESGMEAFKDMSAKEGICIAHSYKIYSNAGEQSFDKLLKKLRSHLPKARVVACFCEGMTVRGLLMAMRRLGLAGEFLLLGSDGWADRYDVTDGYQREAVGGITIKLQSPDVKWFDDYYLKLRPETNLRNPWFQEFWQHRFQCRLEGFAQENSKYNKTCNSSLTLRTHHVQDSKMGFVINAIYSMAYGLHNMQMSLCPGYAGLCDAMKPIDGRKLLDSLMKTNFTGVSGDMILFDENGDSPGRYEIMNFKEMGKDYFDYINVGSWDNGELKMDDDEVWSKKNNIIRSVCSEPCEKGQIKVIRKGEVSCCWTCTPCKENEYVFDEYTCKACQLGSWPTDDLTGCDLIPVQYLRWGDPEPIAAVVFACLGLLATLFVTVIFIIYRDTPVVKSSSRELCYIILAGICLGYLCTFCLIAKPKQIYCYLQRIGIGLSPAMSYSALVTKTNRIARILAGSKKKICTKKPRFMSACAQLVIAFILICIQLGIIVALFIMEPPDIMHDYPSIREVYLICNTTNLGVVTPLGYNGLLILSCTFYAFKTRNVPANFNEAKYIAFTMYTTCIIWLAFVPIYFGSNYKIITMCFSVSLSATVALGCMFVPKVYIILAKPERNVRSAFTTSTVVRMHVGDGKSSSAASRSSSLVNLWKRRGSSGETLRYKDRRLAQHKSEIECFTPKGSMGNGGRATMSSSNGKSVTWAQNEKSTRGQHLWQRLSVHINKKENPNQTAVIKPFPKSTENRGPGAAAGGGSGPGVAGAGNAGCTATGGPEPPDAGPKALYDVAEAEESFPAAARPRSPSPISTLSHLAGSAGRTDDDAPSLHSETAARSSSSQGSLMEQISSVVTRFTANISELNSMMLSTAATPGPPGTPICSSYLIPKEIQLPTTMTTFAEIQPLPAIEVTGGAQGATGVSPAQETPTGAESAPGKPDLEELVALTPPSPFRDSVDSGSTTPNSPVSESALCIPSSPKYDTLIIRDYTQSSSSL

Structure (SMILES)	activation of rat mGluR5 receptors (rat mGluR5 receptor)	EC50 (rat mGluR5 receptor)	IC50 (mGluR5 [2])	melting point	activity in rat cortical astrocytes culture in the absence of added glutamate (mGluR5 [1])
N#Cc1cccc(C(=O)Nc2cc(-c3ccccc3)nn2-c2ccccc2)c1 [CDPPB, reference compound]	activating				inactive
O=C(Nc1ccc(Cl)cc1CN1C(=O)c2ccccc2C1=O)c1ccccc1O [CPPHA, reference compound]	activating				inactive
Fc1cccc(/C=N/N=C/c2cccc(F)c2)c1 [DFB, reference compound]	activating				inactive
Cc1oncc1C(=O)N1CCCC(c2noc(-c3cc4ccccc4[nH]3)n2)C1 (stereo not shown) [Example 26, {3-[5-(1H-Indol-2-yl)-[1,2,4]oxadiazol-3-yl]-piperidin-1-yl}-(5-methyl-isoxazol-4-yl)-methanone]		1000 to 10000 nM		175.6 to 177.2 °C	
Cc1c[nH]c(-c2noc([C@H]3CCCN(C(=O)c4ccc(F)c(F)c4)C3)n2)c1 [Example 32, (3,4-Difluoro-phenyl)-{(S)-3-[3-(4-methyl-1H-pyrrol-2-yl)-[1,2,4]oxadiazol-5-yl]-piperidin-1-yl}-methanone]		< 1000 nM		166 to 167 °C	
O=C(c1ccc(F)cc1)N1CCC[C@H](c2noc(-c3cc([N+](=O)[O-])c[nH]3)n2)C1 [Example 36, (4-Fluoro-phenyl)-{(S)-3-[5-(4-nitro-1H-pyrrol-2-yl)-[1,2,4]oxadiazol-3-yl]-piperidin-1-yl}-methanone]		< 1000 nM		157 to 158 °C	
O=C(c1ccc(F)cc1)N1CCC[C@H](c2noc(-c3cc(C(F)(F)F)c[nH]3)n2)C1 [Example 76, (4-Fluoro-phenyl)-{(S)-3-[5-(4-trifluoromethyl-1H-pyrrol-2-yl)-[1,2,4]oxadiazol-3-yl]-piperidin-1-yl}-methanone]		> 10000 nM		183.5 °C	

Further lines, with some results ahead:

activation of rat mGluR5 receptors (rat mGluR5 receptor)	EC50 (rat mGluR5 receptor)	IC50 (mGluR5 [2])	melting point	Structure (SMILES)	activity in rat cortical astrocytes culture in the absence of added glutamate (mGluR5 [1])
	< 1000 nM	< 30 µM	130 to 135 °C	O=C(c1ccc(F)cc1)N1CCC[C@H](c2nc(-c3ccc[nH]3)no2)C1 [Example 1, (4-Fluoro-phenyl)-{(S)-3-[3-(1H-pyrrol-2-yl)-[1,2,4]oxadiazol-5-yl]-piperidin-1-yl}-methanone]	
	< 1000 nM		183 °C	Cc1c[nH]c(-c2nc([C@H]3CCCN(C(=O)c4ccc(F)cc4)C3)no2)c1 [Example 27, (4-Fluoro-phenyl)-{(S)-3-[5-(4-methyl-1H-pyrrol-2-yl)-[1,2,4]oxadiazol-3-yl]-piperidin-1-yl}-methanone]	
	< 1000 nM		188 to 190 °C	Cc1c[nH]c(-c2noc([C@H]3CCCN(C(=O)c4ccc(F)cc4)C3)n2)c1 [Example 31, (4-Fluoro-phenyl)-{(S)-3-[3-(4-methyl-1H-pyrrol-2-yl)-[1,2,4]oxadiazol-5-yl]-piperidin-1-yl}-methanone]	
	1000 to 10000 nM		132 to 133 °C	O=C(c1ccc(F)cc1)N1CCC[C@@H](c2nc(-c3ccc[nH]3)no2)C1 [Example 37, (4-Fluoro-phenyl)-{(R)-3-[3-(1H-pyrrol-2-yl)-[1,2,4]oxadiazol-5-yl]-piperidin-1-yl}-methanone]	
	1000 to 10000 nM		114.8 to 118 °C	O=C(c1ccc(F)cc1)N1CCCC(F)(c2nc(-c3ccc[nH]3)no2)C1 (stereo not shown) [Example 47, (4-Fluoro-phenyl)-{3-fluoro-3-[3-(1H-pyrrol-2-yl)-[1,2,4]oxadiazol-5-yl]-piperidin-1-yl}-methanone]	
	< 1000 nM		146.5 to 147.2 °C	O=C(c1ccc(F)cc1)N1CCC[C@H](c2nc(-c3cc(F)c[nH]3)no2)C1 [Example 50, (4-Fluoro-phenyl)-{(S)-3-[3-(4-fluoro-1H-pyrrol-2-yl)-[1,2,4]oxadiazol-5-yl]-piperidin-1-yl}-methanone]	
	< 1000 nM		147.5 to 148.2 °C	O=C(c1ccc(F)c(F)c1)N1CCC[C@H](c2nc(-c3cc(F)c[nH]3)no2)C1 [Example 51, (3,4-Difluoro-phenyl)-{(S)-3-[3-(4-fluoro-1H-pyrrol-2-yl)-[1,2,4]oxadiazol-5-yl]-piperidin-1-yl}-methanone]	
	1000 to 10000 nM		204.8 to 205.6 °C	N#Cc1c[nH]c(-c2nc([C@H]3CCCN(C(=O)c4ccc(F)cc4)C3)no2)c1 [Example 72, (4-Fluoro-phenyl)-{(S)-3-[5-(4-cyano-1H-pyrrol-2-yl)-[1,2,4]oxadiazol-3-yl]-piperidin-1-yl}-methanone]	
